Values after ≈ are worked out from the molar mass of the structure shown. Where two headings read alike, the source gives them in different places.
Key:
CHI Log D procedure = format: physicochemical; conditions: for chromatographic logD: pH 7.4, CHI Log D; for CHI Log D: pH 7.4
Solubility in PBS = format: physicochemical
Outline: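 Steps: ultracentrifuge the peptide PBS solution, inject the supernatant on HPLC, inject a 50 μM peptide DMSO solution as reference, then calculate solubility as area ratio (PBS/DMSO) × 50 uM.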

[1] = biological target: T1, full-length B-Catenin (Uniprot ID P35222) (Homo sapiens, UniProt P35222); experiment: Alphascreen binding assay (beta-catenin / biotin-TCF4 10-53)
T1 construct: 65 nM full-length B-Catenin (Uniprot ID P35222)
T1 sequence (P35222 1-781): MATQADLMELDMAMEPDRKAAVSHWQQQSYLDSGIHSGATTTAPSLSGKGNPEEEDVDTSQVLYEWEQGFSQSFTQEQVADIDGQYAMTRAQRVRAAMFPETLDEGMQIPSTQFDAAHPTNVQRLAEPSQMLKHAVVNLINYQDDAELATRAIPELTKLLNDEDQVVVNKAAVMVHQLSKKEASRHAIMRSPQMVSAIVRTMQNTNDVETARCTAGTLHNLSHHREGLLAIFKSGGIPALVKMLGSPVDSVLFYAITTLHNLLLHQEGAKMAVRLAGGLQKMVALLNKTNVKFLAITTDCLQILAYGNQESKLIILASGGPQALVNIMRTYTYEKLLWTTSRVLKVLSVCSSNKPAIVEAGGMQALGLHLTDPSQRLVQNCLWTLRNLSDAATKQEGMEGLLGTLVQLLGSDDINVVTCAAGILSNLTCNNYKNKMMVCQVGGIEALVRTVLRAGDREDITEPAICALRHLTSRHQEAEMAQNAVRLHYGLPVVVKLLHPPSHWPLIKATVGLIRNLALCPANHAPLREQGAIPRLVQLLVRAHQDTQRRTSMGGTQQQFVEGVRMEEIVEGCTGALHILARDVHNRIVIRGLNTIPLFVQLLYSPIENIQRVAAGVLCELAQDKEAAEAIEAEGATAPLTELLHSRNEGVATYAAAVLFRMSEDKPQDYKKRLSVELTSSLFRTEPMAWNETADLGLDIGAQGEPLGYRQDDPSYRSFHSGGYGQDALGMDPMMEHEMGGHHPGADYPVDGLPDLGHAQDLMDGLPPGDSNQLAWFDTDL
Outline: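 AlphaScreen (Ni-chelate beads) competition in 50 mM Tris pH 8.0, 250 mM NaCl with detergents and 0.1% BSA. Peptide titrated 10 uM–5 nM against 65 nM human β-catenin bound to 10 nM biotinylated TCF4 10-53, 15 min then 60 min with beads, both at 20 °C; 1:1 Hill-slope fit.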

Compound	chromatographic logD (CHI Log D procedure)	Solubility (Solubility in PBS)	EC50 [1]	solubility at 15 min (Solubility in PBS; Solubility (uM))	CHI Log D (CHI Log D procedure)	Solubility (Solubility in PBS; Solubility (uM))
CC(=O)N1CCC[C@]12CC=CCCCC1(CCCC=CCCCCCC[C@@](C)(C(=O)N[C@@H](Cc3ccccc3)C(=O)N[C@@H](Cc3c[nH]c4ccccc34)C(=O)N[C@@H](CCC(N)=O)C(N)=O)NC(=O)[C@H](C(C)C)NC(=O)[C@H](Cc3ccccc3)NC(=O)[C@H](C)NC(=O)[C@H](C)NC(=O)[C@H](CCc3ccc(O)cc3)NC(=O)[C@H](CC(=O)O)NC1=O)NC(=O)[C@H](C)NC(=O)[C@H](CC(=O)O)NC2=O (stereo partly drawn) [I-273, Ac-PL3-Asp-Ala-B5-Asp-hTyr-Ala-Ala-Phe-Val-S8-Phe-Trp-Gln-NH2]	2.74	10 µM (≈ 18.4 µg/mL)	1.89 µM	–	–	–
CC(=O)N[C@@H](Cc1ccccc1)C(=O)N[C@@H](CC(=O)O)C(=O)N[C@@H](C)C(=O)N[C@]1(C)CCCCCCC=CCOC(=O)N2CC[C@@](C(=O)N[C@@H](Cc3ccccc3)C(=O)N[C@@H](Cc3c[nH]c4ccccc34)C(=O)N[C@@H](CCC(N)=O)C(N)=O)(C2)NC(=O)[C@H](C(C)C)NC(=O)[C@H](CC2CCCC2)NC(=O)[C@H](C)NC(=O)[C@H](C)NC(=O)[C@H](CC(=O)O)NC(=O)[C@H](CC(=O)O)NC1=O (single isomer, unassigned) [I-95, Ac-Phe-Asp-Ala-R8-Asp-Asp-Ala-Ala-CypA-Val-PyrS-Phe-Trp-Gln-NH2]	1.31	–	8.66 µM	33 µM (≈ 59.9 µg/mL)	–	–
CC(=O)N1CCC[C@]12CC=CCCCC1(CCCC=CCCCCCC[C@@](C)(C(=O)N[C@@H](Cc3ccccc3)C(=O)N[C@@H](Cc3c[nH]c4ccccc34)C(=O)N[C@@H](CCC(N)=O)C(N)=O)NC(=O)[C@H](C(C)C)NC(=O)[C@H](C)NC(=O)[C@H](C)NC(=O)[C@H](C)NC(=O)[C@H](CC(=O)O)NC(=O)[C@H](CC(=O)O)NC1=O)NC(=O)[C@H](C)NC(=O)[C@H](CC(=O)O)NC2=O (stereo partly drawn) [I-354, Ac-PL3-Asp-Ala-B5-Asp-Asp-Ala-Ala-Ala-Val-S8-Phe-Trp-Gln-NH2]	–	50 µM (≈ 85.2 µg/mL)	2.13 µM	–	1.947	–
CC(=O)N1CCC[C@]12CC=CCCCC1(CCCC=CCCCCCC[C@@](C)(C(=O)N[C@@H](Cc3ccccc3)C(=O)N[C@@H](Cc3c[nH]c4ccccc34)C(=O)N[C@@H](CCC(N)=O)C(N)=O)NC(=O)[C@H](C(C)C)NC(=O)[C@H](Cc3ccccc3)NC(=O)[C@H](C)NC(=O)[C@H](C)NC(=O)C(Cc3cccc4cc(F)ccc34)NC(=O)[C@H](CC(=O)O)NC1=O)NC(=O)[C@H](C)NC(=O)[C@H](CC(=O)O)NC2=O (stereo partly drawn) [I-256, Ac-PL3-Asp-Ala-B5-Asp-6F1NapA-Ala-Ala-Phe-Val-S8-Phe-Trp-Gln-NH2]	3.1	10 µM (≈ 18.8 µg/mL)	9.21 µM	–	–	–
CC(=O)N1CCC[C@]12CC=CCCCC1(CCCC=CCCCCCC[C@@](C)(C(=O)N[C@@H](Cc3ccccc3)C(=O)N[C@@H](Cc3c[nH]c4ccccc34)C(=O)N[C@@H](CCC(N)=O)C(N)=O)NC(=O)[C@H](C(C)C)NC(=O)[C@H](C)NC(=O)[C@H](C)NC(=O)[C@H](C)NC(=O)[C@H](CC(=O)O)NC(=O)[C@H](CC(=O)O)NC1=O)NC(=O)[C@H](C)NC(=O)[C@H](CC(=O)O)NC2=O (stereo partly drawn) [I-353, Ac-PL3-Asp-Ala-B5-Asp-Asp-Ala-Ala-Ala-Val-S8-Phe-Trp-Gln-NH2]	–	45 µM (≈ 76.7 µg/mL)	9.29 µM	–	1.916	–
CC(=O)N1CCC[C@]12CC=CCCCC1(CCCC=CCCCCCC[C@@](C)(C(=O)N[C@@H](CCc3ccccc3)C(=O)N[C@@H](Cc3c[nH]c4ccccc34)C(=O)N[C@@H](CCC(N)=O)C(N)=O)NC(=O)[C@H](C(C)C)NC(=O)[C@H](Cc3ccccc3)NC(=O)[C@H](C)NC(=O)[C@H](C)NC(=O)[C@H](CC(=O)O)NC(=O)[C@H](CC(=O)O)NC1=O)NC(=O)[C@H](C)NC(=O)[C@H](CC(=O)O)NC2=O (stereo partly drawn) [I-268, Ac-PL3-Asp-Ala-B5-Asp-Asp-Ala-Ala-Phe-Val-S8-hPhe-Trp-Gln-NH2]	2.08	–	4 µM	–	–	47 µM (≈ 84.4 µg/mL)
